Nine compounds from US10329309B2, “3-(3H-imidazo[4,5-B]pyridin-2-yl)-1H-pyrazolo[4,3-B]pyridines and therapeutic uses thereof” (Samumed, LLC, priority 2015, dated 2019) can be followed below.

What all share (type): cell-based
The test system of test [1] is Wnt activity (Sp5-Luc reporter, SW480 colon carcinoma cells). In words: Screening assay for Wnt activity: Sp5-Luc reporter gene assay in SW480 cells. To be noted: Homo sapiens, overnight incubation, 10-point dose-response from 10 μM. From the text: The screening assay for Wnt activity is described as follows. Reporter cell lines can be generated by stably transducing cancer cell lines (e.g., colon cancer) or primary cells (e.g., IEC-6 intestinal cells) with a lentiviral construct that includes a Wnt-responsive promoter driving expression of the firefly luciferase gene.
SW480 colon carcinoma cells were transduced with a lentiviral vector expressing luciferase with a human Sp5 promoter consisting of a sequence of eight TCF/LEF binding sites. SW480 cells stably expressing the Sp5-Luc reporter gene and a hygromycin resistance gene were selected by treatment with 150 μg/mL of hygromycin for 7 days. These stably transduced SW480 cells were expanded in cell culture and used for all further screening activities. Each compound was dissolved in DMSO as a 10 mM stock and used to prepare compound source plates. Serial dilution (1:3, 10-point dose-response curves starting from 10 μM) and compound transfer was performed using the ECHO 550 (Labcyte, Sunnyvale, Calif.) into 384-well white solid bottom assay plates (Greiner Bio-One) with appropriate DMSO backfill for a final DMSO concentration of 0.1%. For Sp5-Luc reporter gene assays, the cells were plated at 4,000 cells/well in 384-well plates with medium containing 1% fetal bovine serum and incubated overnight at 37° C. and 5% CO2. Following incubation, 20 μl of BrightGlo luminescence reagent (Promega) was added to each well of the 384-well assay plates. The plates were placed on an orbital shaker for 2 min and then luminescence was quantified using the Envision (Perkin Elmer) plate reader. Readings were normalized to DMSO only treated cells, and normalized activities were utilized for EC50 calculations using the dose-response log (inhibitor) vs. response -variable slope (four parameters) nonlinear regression feature available in GraphPad Prism 5.0 (or Dotmatics). For EC50 of >10 μM, the percent inhibition at 10 μM is provided.

The subject of a further test is SW480 colon cancer cells. In words: Cell viability assay (CellTiter-Blue), four days. To be noted: Homo sapiens, 96 h, CellTiter-Blue cell viability. As to the method: Representative compounds were screened using the following assay procedure to assess the effect on cell viability as described below.
Each compound was dissolved in DMSO as a 10 mM stock and used to prepare compound source plates. Serial dilution (1:3, 8-point dose-response curves from 10 μM to 0.0045 μM) and compound transfer was performed using the ECHO 550 (Labcyte, Sunnyvale, Calif.) into 96-well clear bottom, black-walled plates (Corning-Costar).
Approximately 2×10^3 SW480 colon cancer cells were seeded into each well and allowed to incubate in the presence or absence of compound for four days at 37° C./5% CO2. Eight replicates of DMSO-treated cells served as controls and cells treated with compound were performed in duplicate.
After incubation, 20 μL of CellTiter-Blue (Promega) was added to each well allowed to incubate for approximately 3 hours. This reagent was a buffered solution which contains resazurin, metabolically active cells were able to reduce rezarurin (blue) into resorufin (pink) which was highly fluorescent. This measured fluorescence was used as a readout for cell viability.
After incubation, the plates were read at Ex 560 nm Em 590 nm (Cytation 3, BioTek). Dose-response curves were generated and EC50 concentration values were calculated using non-linear regression curve fit in the GraphPad Prism (San Diego, Calif.) or Dotmatics' Studies Software (Bishops Stortford, UK). For EC50 of >10 μM, the percent inhibition at 10 μM is provided.
Background: Resazurin is reduced to fluorescent resorufin, in cell work by metabolically active cells.

Test [2] has as its system primary human fibroblasts derived from IPF patients (LL29 cells), α-smooth muscle actin (αSMA). As to the kind of experiment: Inhibition of the fibrotic process: TGF-β1-treated primary human fibroblasts from IPF patients, αSMA staining. To be noted: Fibroblast, 96 h, LL29 fibroblasts from IPF patients, TGF-β1 20 ng/mL, 4 days, inhibition of fibrotic process. From the text:
Representative compounds were screened using primary human fibroblasts (derived from IPF patients) treated with TGF-β1 to determine their ability to inhibit the fibrotic process.
Primary human fibroblasts derived from IPF patients (LL29 cells) [^1Xiaoqiu Liu, et. al., “Fibrotic Lung Fibroblasts Show Blunted Inhibition by cAMP Due to Deficient cAMP Response Element-Binding Protein Phosphorylation”, Journal of Pharmacology and Experimental Therapeutics (2005), 315(2), 678-687; ^2Watts, K. L., et. al., “RhoA signaling modulates cyclin D1 expression in human lung fibroblasts; implications for idiopathic pulmonary fibrosis”, Respiratory Research (2006), 7(1), 88] were obtained from American Type Culture Collection (ATCC) and expanded in F12 medium supplemented with 15% Fetal Bovine Serum and Penicillin/Streptomycin.
Each compound was dissolved in DMSO as a 10 mM stock and used to prepare compound source plates. Serial dilution (1:2, 11-point dose-response curves from 10 μM to 1.87 nM) and compound transfer was performed using the ECHO 550 (Labcyte, Sunnyvale, Calif.) into 384-well clear bottom assay plates (Greiner Bio-One) with appropriate DMSO backfill for a final DMSO concentration of 0.1%. LL29 cells are plated at 1,500 cells/well in 80 μL/well F12 medium supplemented with 1% Fetal Bovine Serum. One hour after addition of the cells, TGF-β1 (Peprotech; 20 ng/mL) was added to the plates to induce fibrosis (ref. 1 and 2 above). Wells treated with TGF-β1 and containing DMSO were used as controls. Cells were incubated at 37° C. and 5% CO2 for 4 days. Following incubation for 4 days, SYTOX green nucleic acid stain (Life Technologies [Thermo Fisher Scientific]) was added to the wells at a final concentration of 1 μM and incubated at room temperature for 30 min. Cells were then fixed using 4% formaldehyde (Electron Microscopy Sciences), washed 3 times with PBS followed by blocking and permeabilization using 3% Bovine Serum Albumin (BSA; Sigma) and 0.3% Triton X-100 (Sigma) in PBS. Cells were then stained with antibody specific to α-smooth muscle actin (αSMA; Abcam) (ref. 1 and 2 above) in 3% Bovine Serum Albumin (BSA; Sigma) and 0.3% Triton X-100 (Sigma) in PBS, and incubated overnight at 4° C. Cells were then washed 3 times with PBS, followed by incubation with Alexa Flor-647 conjugated secondary antibody (Life Technologies [Thermo Fisher Scientific]) and DAPI at room temperature for 1 hour. Cells were then washed 3 times with PBS and plates were sealed for imaging. αSMA staining was imaged by excitation at 630 nm and emission at 665 nm and quantified using the Compartmental Analysis program on the CellInsight CX5 (Thermo Scientific). Dead or apoptotic cells were excluded from analysis based on positive SYTOX green staining. % of total cells positive for αSMA were counted in each well and normalized to the average of 11 wells treated with TGF-β1 on the same plate using Dotmatics' Studies Software. The normalized averages (fold change over untreated) of 3 replicate wells for each compound concentration were used to create dose-responses curves and EC50 values were calculated using non-linear regression curve fit in the Dotmatics' Studies Software. For EC50 of >10 μM, the percent inhibition at 10 μM is provided.

A further test concerns IL-6 (THP-1 cells). As to the kind of experiment: Inhibition of IL-6 in LPS-stimulated THP-1 monocytes (HTRF). To be noted: Homo sapiens, LPS 500 ng/mL, IL-6 by HTRF. As to the method:
Human monocyte cell line (THP-1 cells; Catalog # TIB-202, ATCC, Manassas, Va.) were cultured in Roswell Park Memorial Institute (RPMI) 1640 Medium (Catalog #21870-100, Buffalo, N.Y.) with 1% L-glutamine, 1% HEPES, 1% Sodium Pyruvate, 2% Sodium Bicarbonate supplemented with 100 units/mL penicillin, 50 μg/mL streptomycin, 2-mercaptoethanol (0.05 mM) [basal medium] and 10% fetal bovine serum (Catalog #16140089, Life Technologies, Carlsbad, Calif.) at 37° C. and 5% CO2.
THP-1 cells were cultured in basal media with 1% FBS for 24 hours before the start of the assay. Each compound was dissolved in DMSO as a 10 mM stock and used to prepare compound source plates. Serial dilution (1:3, 10-point dose-response curves starting from 10 μM) and compound transfer was performed using the ECHO 550 (Labcyte, Sunnyvale, Calif.) into 384-well white low volume assay plates (Greiner Bio-One) with appropriate DMSO backfill for a final DMSO concentration of 0.1%. THP-1 cells were plated at 5000 cells/well in the 384-well plates and incubated at 37° C. for 2 h. 500 ng/mL of LPS was added after 2 hours and cells were incubated for another 22 hours at 37° C. Plates were spun in a centrifuge for 1 minute at […] and a mixture of anti-IL6 XL665, and anti-IL6 Cryptate diluted in reconstitution buffer (Cisbio Inc.) was added to each well. Following incubation for 3 hrs at room temperature, Homogeneous Time-Resolved Fluorescence (HTRF) was measured using the Envision (Perkin Elmer) at 665 nm and […]. The ratio of fluorescence at 665 nm to 620 nm was used as a readout for IL6 quantification. All samples were processed in duplicate. Readings were normalized to DMSO treated cells and normalized activities were utilized for EC50 calculations using the dose-response log (inhibitor) vs. response -variable slope (four parameters) nonlinear regression feature available in GraphPad Prism 5.0 (or Dotmatics). For EC50 of >10 μM, the percent inhibition at 10 μM is provided.
(In TR-FRET formats the signal depends on donor and acceptor labels being close together.)

In general, EC50 refers to the concentration that produces a half-maximal response. Lower therefore signals greater potency. Consider `Fc1ccccc1-c1ccnc2[nH]c(-c3n[nH]c4ccc(-c5cncc(CNCC6CCCC6)c5)nc34)nc12` [Compound 81, 1-Cyclopentyl-N-((5-(3-(7-(2-fluorophenyl)-3H-imidazo[4,5-b]pyridin-2-yl)-1H-pyrazolo[4,3-b]pyridin-5-yl)pyridin-3-yl)methyl)methanamine], for which the EC50 amounted to 1120 nM in test [1], 2640 nM with SW480 colon cancer cells, 1600 nM in test [2] and 5760 nM with IL-6 (THP-1 cells).

For the compound `c1ccc(CNCc2cncc(-c3ccc4[nH]nc(-c5nc6c(-c7cccnc7)ccnc6[nH]5)c4n3)c2)cc1` [Compound 108, N-Benzyl-1-(5-(3-(7-(pyridin-3-yl)-3H-imidazo[4,5-b]pyridin-2-yl)-1H-pyrazolo[4,3-b]pyridin-5-yl)pyridin-3-yl)methanamine], the half-maximal effective concentration (EC50) in test [1] worked out at 4860 nM; with SW480 colon cancer cells, 3320 nM; in test [2], 8890 nM; in the test on IL-6 (THP-1 cells), 131 nM.

For `FC1(F)CCN(Cc2cncc(-c3ccc4[nH]nc(-c5nc6c(N7CCCCC7)ccnc6[nH]5)c4n3)c2)C1` [Compound 194, 5-(5-((3,3-Difluoropyrrolidin-1-yl)methyl)pyridin-3-yl)-3-(7-(piperidin-1-yl)-3H-imidazo[4,5-b]pyridin-2-yl)-1H-pyrazolo[4,3-b]pyridine], the 50% effective concentration (EC50) is 4140 nM in test [1], 832 nM with SW480 colon cancer cells, 1190 nM in test [2] and 5420 nM in the test with IL-6 (THP-1 cells).

With `c1ccc(-c2ccc3[nH]nc(-c4nc5cccnc5[nH]4)c3n2)nc1` [Compound 280, 3-(3H-Imidazo[4,5-b]pyridin-2-yl)-5-(pyridin-2-yl)-1H-pyrazolo[4,3-b]pyridine], the concentration giving a half-maximal response (EC50) worked out at 687 nM in test [1], 2290 nM in the test with SW480 colon cancer cells, 3880 nM in test [2] and 115 nM in the test with IL-6 (THP-1 cells).

For the compound `c1ccc(CNCc2cncc(-c3ccc4[nH]nc(-c5nc6c(-c7ccsc7)ccnc6[nH]5)c4n3)c2)cc1` [Compound 304, N-Benzyl-1-(5-(3-(7-(thiophen-3-yl)-3H-imidazo[4,5-b]pyridin-2-yl)-1H-pyrazolo[4,3-b]pyridin-5-yl)pyridin-3-yl)methanamine], the EC50 in test [1] stood at 1970 nM; with SW480 colon cancer cells it was 1400 nM; in test [2], 1340 nM; in the test on IL-6 (THP-1 cells), 4260 nM.

Turning to `c1cc(-c2ccoc2)c2nc(-c3n[nH]c4ccc(-c5cncc(CNCC6CCCC6)c5)nc34)[nH]c2n1` [Compound 333, 1-Cyclopentyl-N-((5-(3-(7-(furan-3-yl)-3H-imidazo[4,5-b]pyridin-2-yl)-1H-pyrazolo[4,3-b]pyridin-5-yl)pyridin-3-yl)methyl)methanamine], the concentration for a half-maximal effect (EC50) is 2720 nM in test [1], 2590 nM in the test with SW480 colon cancer cells, 1420 nM in test [2] and 2620 nM in the test with IL-6 (THP-1 cells).

With `c1csc(-c2ccnc3[nH]c(-c4n[nH]c5ccc(-c6ccncc6)nc45)nc23)c1` [Compound 354, 5-(Pyridin-4-yl)-3-(7-(thiophen-2-yl)-3H-imidazo[4,5-b]pyridin-2-yl)-1H-pyrazolo[4,3-b]pyridine], the EC50 in test [1] was 731 nM; in the test with SW480 colon cancer cells, 405 nM; in test [2] it was 387 nM; with IL-6 (THP-1 cells), 1380 nM.

Regarding `CN(C)CCNc1cc(F)cc(-c2ccnc3[nH]c(-c4n[nH]c5ccc(-c6cncc(CNCC7CCCC7)c6)nc45)nc23)c1` [Compound 473, N^1-(3-(2-(5-(5-(((Cyclopentylmethyl)amino)methyl)pyridin-3-yl)-1H-pyrazolo[4,3-b]pyridin-3-yl)-3H-imidazo[4,5-b]pyridin-7-yl)-5-fluorophenyl)-N^2,N^2-dimethylethane-1,2-diamin], the EC50 in test [1] is 3640 nM; in the test with SW480 colon cancer cells, 2820 nM; in test [2] it was 1530 nM; in the test with IL-6 (THP-1 cells), 2620 nM.

For the compound `Oc1cncc(-c2ccc3[nH]nc(-c4nc5c(N6CCCCC6)ccnc5[nH]4)c3n2)c1` [Compound 613, 5-(3-(7-(Piperidin-1-yl)-3H-imidazo[4,5-b]pyridin-2-yl)-1H-pyrazolo[4,3-b]pyridin-5-yl)pyridin-3-ol], the EC50 in test [1] is 3290 nM; in the test on SW480 colon cancer cells, 3560 nM; in test [2], 2440 nM; with IL-6 (THP-1 cells), 9180 nM.
